Measurements published in ChEMBL document CHEMBL3045355, “Synthesis of a New Series of 4-Aryl-1,4-Dihydropyridines with Calcium Channel Blocking and Vasodilatory Activity” (Med Chem Res, 2012).

Legend:
[1] = target: T1, Voltage-gated L-type calcium channel (Rattus norvegicus, UniProt P22002+Q02485+P27732); test: Inhibition of L-type calcium channel in Rattus norvegicus Wistar (rat) thoracic aorta assessed as relaxation of phenylephrine-induced vasoconstriction after 30 min relative to control; type: tissue-based
[2] = target: T1, Voltage-gated L-type calcium channel; test: Inhibition of L-type calcium channel in neonatal rat cortical neurons assessed as inhibition of veratridine-induced intracellular calcium level incubated for 30 min followed by veratridine induction for 2 min by fluorimetric analysis; type: cell-based
[3] = target: T1, Voltage-gated L-type calcium channel; test: Inhibition of L-type calcium channel in Rattus norvegicus Wistar (rat) thoracic aorta assessed as relaxation of KCl-induced vasoconstriction after 30 min relative to control; type: tissue-based

| IC50 [1] [µM] | pIC50 [1] | IC50 [2] [µM] | IC50 [3] [µM] | pIC50 [3] | SMILES |
| --- | --- | --- | --- | --- | --- |
| 0.64 | 6.19 | 9.9 |  |  | COC(=O)C1=C(C)NC(C)=C(C(=O)OC)C1c1cccc(OCC(=O)N2CCOCC2)c1 |
|  |  |  | 12.8 | 4.89 | CCOC(=O)C1=C(C)NC(C)=C(C(=O)OC)C1c1ccc(OCC(=O)OC)c(OC)c1 (configuration not stated) |
| 1.44 | 5.84 | 10 |  |  | COC(=O)COc1cccc(C2C(C(=O)OC)=C(C)NC(C)=C2C(=O)OC)c1 |
| 0.83 | 6.08 | 5.6 |  |  | COC(=O)C1=C(C)NC(C)=C(C(=O)OC)C1c1ccc(OCC(=O)N2CCCC2)c(OC)c1 |
|  |  | 10 |  |  | COC(=O)C1=C(C)NC(C)=C(C(=O)OC)C1c1cccc(OCC(=O)N2CCCCC2)c1 |
|  |  | 2.1 |  |  | COC(=O)COc1ccc(C2C(C(=O)OC)=C(C)NC(C)=C2C(=O)OC)cc1 |
| 1.73 | 5.76 | 10 |  |  | COC(=O)C1=C(C)NC(C)=C(C(=O)OC)C1c1ccc(OCC(=O)N2CCCC(C)C2)c(OC)c1 (configuration not stated) |
| 4.57 | 5.34 | 3.6 |  |  | COC(=O)C1=C(C)NC(C)=C(C(=O)OC)C1c1cccc(OCC(=O)N2CCCC2)c1 |
|  |  | 10 |  |  | COC(=O)C1=C(C)NC(C)=C(C(=O)OC)C1c1ccc(OCC(=O)N2CCCCC2)c(OC)c1 |
|  |  |  | 3.89 | 5.41 | CCOC(=O)C1=C(C)NC(C)=C(C(=O)OC)C1c1ccc(OCC(=O)N2CCCCC2)c(OC)c1 (configuration not stated) |
|  |  | 2.5 |  |  | COC(=O)C1=C(C)NC(C)=C(C(=O)OC)C1c1ccc(OCC(=O)NC(C)(C)C)c(OC)c1 |
|  |  | 10.1 |  |  | COC(=O)C1=C(C)NC(C)=C(C(=O)OC)C1c1ccc(OCC(=O)n2ccnc2)c(OC)c1 |
|  |  |  | 1.25 | 5.9 | CCOC(=O)C1=C(C)NC(C)=C(C(=O)OC)C1c1cccc(OCC(=O)N2CCCCC2)c1 (configuration not stated) |

| SMILES | IC50 [1] [µM] | pIC50 [1] | IC50 [2] [µM] | IC50 [3] [µM] | pIC50 [3] |
| --- | --- | --- | --- | --- | --- |
| COC(=O)C1=C(C)NC(C)=C(C(=O)OC)C1c1ccc(OCC(=O)N2CCN(C)CC2)c(OC)c1 | 6.91 | 5.16 | 9.1 |  |  |
| COC(=O)C1=C(C)NC(C)=C(C(=O)OC)C1c1cccc(OCC(=O)N2CCN(C)CC2)c1 | 9.54 | 5.02 | 10 |  |  |
